Data from ChEMBL document CHEMBL1135329, “DNA binding ligands with excellent antibiotic potency against drug-resistant gram-positive bacteria” (Bioorg Med Chem Lett, 2002).
pKd: −log10 of the molar value. ≈ marks a conversion by molar mass, not a printed value.

The molecules below were run on Enterococcus faecalis (assay: Antimicrobial activity was determined against vancomycin-resistant Enterococcus faecalis (VREF 51559)). Conditions: not given.
Format: functional
Molecule `Cn1cc(NC(=O)c2cc(NC(=O)c3cc(NC(=O)c4nsc(N5CCCCC5)c4Cl)cn3C)cn2C)cc1C(=O)NCCN1CCOCC1` has an MIC of 1 µg/mL (≈ 1.38 µM).
`CN(C)CCCNC(=O)c1cc(NC(=O)c2cc(NC(=O)c3cc(NC(=O)c4nsc(NCCCCN)c4Cl)cn3C)cn2C)cn1C` showed an MIC of 1 µg/mL (≈ 1.43 µM).
Molecule `Cn1cc(NC(=O)c2cc(NC(=O)c3cc(NC(=O)c4nsc(NCCc5ccccn5)c4Cl)cn3C)cn2C)cc1C(=O)NCCN1CCOCC1` has an MIC of 4 µg/mL (≈ 5.25 µM).
With `Cn1cc(NC(=O)c2cc(NC(=O)c3cc(NC(=O)c4nsc(NCCN5CCOCC5)c4Cl)cn3C)cn2C)cc1C(=O)NCCc1ccncc1` the MIC was 0.25 µg/mL (≈ 0.328 µM).
`Cn1cc(NC(=O)c2cc(NC(=O)c3cc(NC(=O)c4nsc(NCCN5CCOCC5)c4Cl)cn3C)cn2C)cc1C(=O)NCCN1CCOCC1` was tested, and the MIC was 2 µg/mL (≈ 2.6 µM).

These molecules were tested on Streptococcus pneumoniae (assay: Antimicrobial activity was determined against penicillin-resistant Streptococcus pneumoniae (PRSP 51422)). Conditions: not given.
Format: functional
`Cn1cc(NC(=O)c2cc(NC(=O)c3cc(NC(=O)c4nsc(N5CCCCC5)c4Cl)cn3C)cn2C)cc1C(=O)NCCN1CCOCC1` gave an MIC of 0.062 µg/mL (≈ 0.0855 µM).
With `CN(C)CCCNC(=O)c1cc(NC(=O)c2cc(NC(=O)c3cc(NC(=O)c4nsc(NCCCCN)c4Cl)cn3C)cn2C)cn1C` the MIC was 1 µg/mL (≈ 1.43 µM).
Work on `Cn1cc(NC(=O)c2cc(NC(=O)c3cc(NC(=O)c4nsc(NCCc5ccccn5)c4Cl)cn3C)cn2C)cc1C(=O)NCCN1CCOCC1` yielded an MIC of 0.5 µg/mL (≈ 0.656 µM).
With `Cn1cc(NC(=O)c2cc(NC(=O)c3cc(NC(=O)c4nsc(NCCN5CCOCC5)c4Cl)cn3C)cn2C)cc1C(=O)NCCc1ccncc1` the MIC was 0.5 µg/mL (≈ 0.656 µM).
`Cn1cc(NC(=O)c2cc(NC(=O)c3cc(NC(=O)c4nsc(NCCN5CCOCC5)c4Cl)cn3C)cn2C)cc1C(=O)NCCN1CCOCC1` gave an MIC of 0.25 µg/mL (≈ 0.325 µM).

The molecules below were run on Streptococcus pneumoniae (assay: Antimicrobial activity was determined against penicillin-susceptible Streptococcus pneumoniae (PSSP 49619)). Conditions: not given.
Format: functional
Molecule `Cn1cc(NC(=O)c2cc(NC(=O)c3cc(NC(=O)c4nsc(N5CCCCC5)c4Cl)cn3C)cn2C)cc1C(=O)NCCN1CCOCC1` has an MIC of 0.125 µg/mL (≈ 0.172 µM).
`CN(C)CCCNC(=O)c1cc(NC(=O)c2cc(NC(=O)c3cc(NC(=O)c4nsc(NCCCCN)c4Cl)cn3C)cn2C)cn1C` was tested, and the MIC was 0.5 µg/mL (≈ 0.714 µM).
In the case of `Cn1cc(NC(=O)c2cc(NC(=O)c3cc(NC(=O)c4nsc(NCCc5ccccn5)c4Cl)cn3C)cn2C)cc1C(=O)NCCN1CCOCC1`, the MIC was 0.125 µg/mL (≈ 0.164 µM).
In the case of `Cn1cc(NC(=O)c2cc(NC(=O)c3cc(NC(=O)c4nsc(NCCN5CCOCC5)c4Cl)cn3C)cn2C)cc1C(=O)NCCc1ccncc1`, the MIC was 0.062 µg/mL (≈ 0.0813 µM).
With `Cn1cc(NC(=O)c2cc(NC(=O)c3cc(NC(=O)c4nsc(NCCN5CCOCC5)c4Cl)cn3C)cn2C)cc1C(=O)NCCN1CCOCC1` the MIC was 0.062 µg/mL (≈ 0.0805 µM).

These molecules were tested on Enterococcus faecalis (assay: Antimicrobial activity was determined against vancomycin-susceptible Enterococcus faecalis (VSEF 29212)). Conditions: not given.
Format: functional
With `Cn1cc(NC(=O)c2cc(NC(=O)c3cc(NC(=O)c4nsc(N5CCCCC5)c4Cl)cn3C)cn2C)cc1C(=O)NCCN1CCOCC1` the MIC was 1 µg/mL (≈ 1.38 µM).
Molecule `CN(C)CCCNC(=O)c1cc(NC(=O)c2cc(NC(=O)c3cc(NC(=O)c4nsc(NCCCCN)c4Cl)cn3C)cn2C)cn1C` has an MIC of 1 µg/mL (≈ 1.43 µM).
Molecule `Cn1cc(NC(=O)c2cc(NC(=O)c3cc(NC(=O)c4nsc(NCCc5ccccn5)c4Cl)cn3C)cn2C)cc1C(=O)NCCN1CCOCC1` has an MIC of 0.5 µg/mL (≈ 0.656 µM).
Work on `Cn1cc(NC(=O)c2cc(NC(=O)c3cc(NC(=O)c4nsc(NCCN5CCOCC5)c4Cl)cn3C)cn2C)cc1C(=O)NCCc1ccncc1` yielded an MIC of 0.062 µg/mL (≈ 0.0813 µM).
In the case of `Cn1cc(NC(=O)c2cc(NC(=O)c3cc(NC(=O)c4nsc(NCCN5CCOCC5)c4Cl)cn3C)cn2C)cc1C(=O)NCCN1CCOCC1`, the MIC was 0.25 µg/mL (≈ 0.325 µM).

Each molecule was assayed on Staphylococcus aureus (assay: Antimicrobial activity was determined against methicillin-resistant Staphylococcus aureus (MRSA 27660)). Conditions: not given.
Format: functional
`Cn1cc(NC(=O)c2cc(NC(=O)c3cc(NC(=O)c4nsc(N5CCCCC5)c4Cl)cn3C)cn2C)cc1C(=O)NCCN1CCOCC1` showed an MIC of 1 µg/mL (≈ 1.38 µM).
In the case of `CN(C)CCCNC(=O)c1cc(NC(=O)c2cc(NC(=O)c3cc(NC(=O)c4nsc(NCCCCN)c4Cl)cn3C)cn2C)cn1C`, the MIC was 2 µg/mL (≈ 2.86 µM).
Molecule `Cn1cc(NC(=O)c2cc(NC(=O)c3cc(NC(=O)c4nsc(NCCc5ccccn5)c4Cl)cn3C)cn2C)cc1C(=O)NCCN1CCOCC1` has an MIC of 2 µg/mL (≈ 2.62 µM).
`Cn1cc(NC(=O)c2cc(NC(=O)c3cc(NC(=O)c4nsc(NCCN5CCOCC5)c4Cl)cn3C)cn2C)cc1C(=O)NCCc1ccncc1` gave an MIC of 0.5 µg/mL (≈ 0.656 µM).
`Cn1cc(NC(=O)c2cc(NC(=O)c3cc(NC(=O)c4nsc(NCCN5CCOCC5)c4Cl)cn3C)cn2C)cc1C(=O)NCCN1CCOCC1` gave an MIC of 4 µg/mL (≈ 5.19 µM).

What follows are molecules tested on Candida albicans (assay: Antifungal activity was determined against Candida albicans). Conditions: not given.
Format: functional
For `Cn1cc(NC(=O)c2cc(NC(=O)c3cc(NC(=O)c4nsc(N5CCCCC5)c4Cl)cn3C)cn2C)cc1C(=O)NCCN1CCOCC1`, the MIC was > 32 µg/mL.
Work on `CN(C)CCCNC(=O)c1cc(NC(=O)c2cc(NC(=O)c3cc(NC(=O)c4nsc(NCCCCN)c4Cl)cn3C)cn2C)cn1C` yielded an MIC of 8 µg/mL (≈ 11.4 µM).
`Cn1cc(NC(=O)c2cc(NC(=O)c3cc(NC(=O)c4nsc(NCCc5ccccn5)c4Cl)cn3C)cn2C)cc1C(=O)NCCN1CCOCC1` was tested, and the MIC was > 32 µg/mL.
In the case of `Cn1cc(NC(=O)c2cc(NC(=O)c3cc(NC(=O)c4nsc(NCCN5CCOCC5)c4Cl)cn3C)cn2C)cc1C(=O)NCCc1ccncc1`, the MIC was > 32 µg/mL.
For `Cn1cc(NC(=O)c2cc(NC(=O)c3cc(NC(=O)c4nsc(NCCN5CCOCC5)c4Cl)cn3C)cn2C)cc1C(=O)NCCN1CCOCC1`, the MIC was > 32 µg/mL.

The molecules below were run on Escherichia coli (assay: Binding to the sequence 5'-ACAATTAA-3', a site proximal to the […] RNA polymerase subunit binding site within the Escherichia coli Trc promoter.). Conditions: read-out: Kd app.
Format: functional
For `Cn1cc(NC(=O)c2cc(NC(=O)c3cc(NC(=O)c4nsc(N5CCCCC5)c4Cl)cn3C)cn2C)cc1C(=O)NCCN1CCOCC1`, the pKd was 8.40.
`CN(C)CCCNC(=O)c1cc(NC(=O)c2cc(NC(=O)c3cc(NC(=O)c4nsc(NCCCCN)c4Cl)cn3C)cn2C)cn1C` gave a pKd of 8.98.
`Cn1cc(NC(=O)c2cc(NC(=O)c3cc(NC(=O)c4nsc(NCCc5ccccn5)c4Cl)cn3C)cn2C)cc1C(=O)NCCN1CCOCC1` showed a pKd of 9.08.
For `Cn1cc(NC(=O)c2cc(NC(=O)c3cc(NC(=O)c4nsc(NCCN5CCOCC5)c4Cl)cn3C)cn2C)cc1C(=O)NCCc1ccncc1`, the pKd was 8.36.
For `Cn1cc(NC(=O)c2cc(NC(=O)c3cc(NC(=O)c4nsc(NCCN5CCOCC5)c4Cl)cn3C)cn2C)cc1C(=O)NCCN1CCOCC1`, the pKd was 8.04.

The molecules below were run on Staphylococcus aureus (assay: Antimicrobial activity was determined against methicillin-susceptible S. aureus(MSSA 29213)). Conditions: not given.
Format: functional
In the case of `Cn1cc(NC(=O)c2cc(NC(=O)c3cc(NC(=O)c4nsc(N5CCCCC5)c4Cl)cn3C)cn2C)cc1C(=O)NCCN1CCOCC1`, the MIC was 2 µg/mL (≈ 2.76 µM).
In the case of `CN(C)CCCNC(=O)c1cc(NC(=O)c2cc(NC(=O)c3cc(NC(=O)c4nsc(NCCCCN)c4Cl)cn3C)cn2C)cn1C`, the MIC was 2 µg/mL (≈ 2.86 µM).
Molecule `Cn1cc(NC(=O)c2cc(NC(=O)c3cc(NC(=O)c4nsc(NCCc5ccccn5)c4Cl)cn3C)cn2C)cc1C(=O)NCCN1CCOCC1` has an MIC of 1 µg/mL (≈ 1.31 µM).
Work on `Cn1cc(NC(=O)c2cc(NC(=O)c3cc(NC(=O)c4nsc(NCCN5CCOCC5)c4Cl)cn3C)cn2C)cc1C(=O)NCCc1ccncc1` yielded an MIC of 0.125 µg/mL (≈ 0.164 µM).
In the case of `Cn1cc(NC(=O)c2cc(NC(=O)c3cc(NC(=O)c4nsc(NCCN5CCOCC5)c4Cl)cn3C)cn2C)cc1C(=O)NCCN1CCOCC1`, the MIC was 1 µg/mL (≈ 1.3 µM).
